Legend:
[1] = tested on: bedstraw; test: Test B pre/postemergence bedstraw; assay type: in vivo, Galium aparine
Method in brief: (§1)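 Response is a visual 0-to-10 score relative to untreated plants, where 0 means no effect and 10 means complete control, taken twelve to sixteen days after application. Treatments went onto soil at planting and onto foliage of 1- to 4-leaf plants, using a surfactant-containing non-phytotoxic solvent.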

[2] = tested on: blackgrass; test: Test B pre/postemergence blackgrass; assay type: in vivo, Alopecurus myosuroides
Method in brief: as §1

[3] = tested on: surinam grass; test: Test B pre/postemergence surinam grass; assay type: in vivo, Brachiaria decumbens
Method in brief: as §1

[4] = tested on: cocklebur; test: Test B pre/postemergence cocklebur; assay type: in vivo, Xanthium strumarium
Method in brief: as §1

[5] = tested on: corn; test: Test B pre/postemergence corn; assay type: in vivo, Zea mays
Method in brief: as §1

[6] = tested on: morningglory; test: Test B pre/postemergence morningglory; assay type: in vivo, Ipomoea hederacea
Method in brief: as §1

[7] = tested on: pigweed; test: Test B pre/postemergence pigweed; assay type: in vivo, Amaranthus retroflexus
Method in brief: as §1

[8] = tested on: rape; test: Test B pre/postemergence rape; assay type: in vivo, Brassica napus
Method in brief: as §1

[9] = tested on: soybean; test: Test B pre/postemergence soybean; assay type: in vivo, Glycine max
Method in brief: as §1

[10] = tested on: sugar beet; test: Test B pre/postemergence sugar beet; assay type: in vivo, Beta vulgaris
Method in brief: as §1

[11] = tested on: velvetleaf; test: Test B pre/postemergence velvetleaf; assay type: in vivo, Abutilon theophrasti
Method in brief: as §1

[12] = tested on: wild oat; test: Test B pre/postemergence wild oat; assay type: in vivo, Avena fatua
Method in brief: as §1

[13] = tested on: purple nutsedge; test: Test B pre/postemergence purple nutsedge; assay type: in vivo, Cyperus rotundus
Method in brief: as §1

[14] = Postemergence, Rate 125 g/ha, scale of 0 to 10 where 0 is no effect and 10 is complete control
[15] = Preemergence, Rate 62 g/ha, scale of 0 to 10 where 0 is no effect and 10 is complete control
[16] = Preemergence, Rate 125 g/ha, 0 is no effect, 10 is complete control
[17] = Preemergence, Rate 250 g/ha, scale 0 to 10, 0 is no effect, 10 is complete control
[18] = Preemergence, Rate 500 g/ha, scale 0 to 10 (0 no effect, 10 complete control)
[19] = Rate 62 g/ha, Postemergence, scale of 0 to 10 where 0 is no effect and 10 is complete control
[20] = Rate 250 g/ha, Postemergence, scale 0 to 10, 0 is no effect, 10 is complete control
[21] = Rate 500 g/ha, Postemergence, scale 0 to 10

CC1CCCCC1n1c(=O)on(C(=O)N(c2ccc(F)cc2F)C(C)C)c1=O (stereo not drawn) [Compound 172]
Bedstraw plant response rating [1, 14]: 0 | Bedstraw plant response rating [1, 15]: 0 | Bedstraw plant response rating (0 to 10 scale) [1, 16]: 0 | Bedstraw plant response rating [1, 17]: 3 | Bedstraw plant response rating [1, 18]: 5 | Bedstraw plant response rating [1, 19]: 0 | Plant response rating, Bedstraw [1, 20]: 8 | Blackgrass plant response rating [2, 14]: 0 | Blackgrass plant response rating [2, 15]: 0 | Blackgrass plant response rating (0 to 10 scale) [2, 16]: 0 | Blackgrass plant response rating [2, 17]: 3 | Blackgrass plant response rating [2, 18]: 3 | Blackgrass plant response rating [2, 19]: 0 | Plant response rating, Blackgrass [2, 20]: 5 | Blackgrass plant response rating [2, 21]: 5 | B. signalgrass plant response rating [3, 14]: 0 | B. signalgrass plant response rating [3, 15]: 2 | B. signalgrass plant response rating (0 to 10 scale) [3, 16]: 5 | B. signalgrass plant response rating [3, 17]: 5 | B. signalgrass plant response rating [3, 18]: 8 | B. signalgrass plant response rating [3, 19]: 0 | Plant response rating, B. signalgrass [3, 20]: 0 | B. signalgrass plant response rating ([3]; Rate 500 g/ha, Postemergence, scale 0 to 10, 0 no effect, 10 complete control): 0 | Cocklebur plant response rating [4, 14]: 0 | Cocklebur plant response rating [4, 15]: 0 | Cocklebur plant response rating (0 to 10 scale) [4, 16]: 0 | Cocklebur plant response rating [4, 17]: 0 | Cocklebur plant response rating [4, 18]: 0 | Cocklebur plant response rating [4, 19]: 0 | Plant response rating, Cocklebur [4, 20]: 0 | Cocklebur plant response rating [4, 21]: 2 | Corn plant response rating [5, 14]: 0 | Corn plant response rating [5, 15]: 0 | Corn plant response rating (0 to 10 scale) [5, 16]: 0 | Corn plant response rating [5, 17]: 0 | Corn plant response rating [5, 18]: 0 | Corn plant response rating [5, 19]: 0 | Plant response rating, Corn [5, 20]: 0 | Corn plant response rating [5, 21]: 0 | Morningglory plant response rating [6, 14]: 5 | Morningglory plant response rating [6, 15]: 0 | Morningglory plant response rating (0 to 10 scale) [6, 16]: 0 | Morningglory plant response rating [6, 17]: 0 | Morningglory plant response rating [6, 18]: 0 | Morningglory plant response rating [6, 19]: 2 | Plant response rating, Morningglory [6, 20]: 5 | Morningglory plant response rating [6, 21]: 8 | Redroot pigweed plant response rating [7, 14]: 0 | Redroot pigweed plant response rating [7, 15]: 0 | Redroot pigweed plant response rating (0 to 10 scale) [7, 16]: 6 | Redroot pigweed plant response rating [7, 17]: 8 | Redroot pigweed plant response rating [7, 18]: 8 | Redroot pigweed plant response rating [7, 19]: 0 | Plant response rating, Redroot pigweed [7, 20]: 3 | Redroot pigweed plant response rating [7, 21]: 7 | Rape plant response rating [8, 14]: 0 | Rape plant response rating [8, 15]: 0 | Rape plant response rating (0 to 10 scale) [8, 16]: 0 | Rape plant response rating [8, 17]: 0 | Rape plant response rating [8, 18]: 5 | Rape plant response rating [8, 19]: 0 | Plant response rating, Rape [8, 20]: 0 | Rape plant response rating [8, 21]: 0 | Soybean plant response rating [9, 14]: 3 | Soybean plant response rating [9, 15]: 0 | Soybean plant response rating (0 to 10 scale) [9, 16]: 0 | Soybean plant response rating [9, 17]: 0 | Soybean plant response rating [9, 18]: 0 | Soybean plant response rating [9, 19]: 2 | Plant response rating, Soybean [9, 20]: 3 | Soybean plant response rating [9, 21]: 5 | Sugarbeets plant response rating [10, 14]: 0 | Sugarbeets plant response rating [10, 15]: 0 | Sugarbeets plant response rating (0 to 10 scale) [10, 16]: 2 | Sugarbeets plant response rating [10, 17]: 5 | Sugarbeets plant response rating [10, 18]: 5 | Sugarbeets plant response rating [10, 19]: 0 | Plant response rating, Sugarbeets [10, 20]: 0 | Sugarbeets plant response rating [10, 21]: 0 | Velvetleaf plant response rating [11, 15]: 0 | Velvetleaf plant response rating (0 to 10 scale) [11, 16]: 0 | Velvetleaf plant response rating [11, 17]: 0 | Velvetleaf plant response rating [11, 18]: 3 | Plant response rating, Velvetleaf [11, 20]: 0 | Velvetleaf plant response rating [11, 21]: 2 | Wild oats plant response rating [12, 15]: 0 | Wild oats plant response rating (0 to 10 scale) [12, 16]: 0 | Wild oats plant response rating [12, 17]: 3 | Wild oats plant response rating [12, 18]: 6 | Plant response rating, Wild oats [12, 20]: 0 | Wild oats plant response rating [12, 21]: 0 | Nutsedge plant response rating [13, 14]: 0 | Nutsedge plant response rating [13, 15]: 0 | Nutsedge plant response rating (0 to 10 scale) [13, 16]: 0 | Nutsedge plant response rating [13, 17]: 0 | Nutsedge plant response rating [13, 18]: 0 | Nutsedge plant response rating [13, 19]: 0 | Plant response rating, Nutsedge [13, 20]: 0 | Nutsedge plant response rating [13, 21]: 0

Reference: patent US6737383B1, “Herbicidal oxadiazolidines” (priority 1999, dated 2004)
